Source: patent publication US20230047788A1, “COMPOSITIONS COMPRISING 5-CHOLESTEN-3, 25-DIOL, 3-SULFATE (25HC3S) OR PHARMACEUTICALLY ACCEPTABLE SALT THEREOF AND AT LEAST ONE CYCLIC OLIGOSACCHARIDE” (Virginia Commonwealth University, priority 2016, published 2023)

Test: Effect of phosphate and borate buffers on chemical stability (% remaining, impurity profile), osmolality, pH and appearance of 25HC3S 30 mg/mL in 250 mg/mL HPBCD at 80°C and 60°C
Type: physicochemical
Set-up: First Order Rate Constant: unit not given beside the values
Description: A total of six 25HC3S formulations at 30 mg/mL in 250 mg/mL of 2-hydroxypropyl beta cyclodextrin (HPBCD) containing 10, 20, 50 and 100 mM phosphate buffers at pH 7.5 to 8.1 and 10 and 50 mM borate buffers at pH 9.4 were prepared for the stability study. The chemical stability (measured as % remaining of 25HC3S) and physical stability (osmolality, pH and appearance) of the formulations were monitored under accelerated conditions for up to 7 days at 80° C. and up to 29 days at 60° C.
Two stock solutions of phosphate buffer at 100 and 200 mM at pH 7.4 and 7.3, respectively and one borate buffer at 100 mM at pH 9.3 were prepared (Tables 22A and 22B) and used for 250 mg/mL HPBCD vehicles preparation (Table 23).
Approximately 1200 mg each of 25HC3S was weighed into 40 mL volumetric flasks and diluted to volume with the six HPBCD vehicles containing 10-100 mM phosphate buffers or 10 and 50 mM borate buffers, respectively (Table 24). The final concentration of 25HC3S was 30 mg/mL (wt/volume, without adjusting for API purity). Aliquots of 2 mL of each formulation were filled into 2 mL glass vials, stoppered and sealed for stability sample set-up at 60° C. and 80° C. to study the effect of phosphate buffer (pH 7.5-8.1) and borate buffer (pH 9.4) at various buffer concentrations on the stability of the HPBCD formulations (Table 26).
A 0.5 mL of sample solution was transferred to a 25 mL volumetric flask and QS'ed with methanol/water=95/5 for 25HC3S concentration determination by HPLC. The % remaining of 25HC3S was calculated as follows: […]

[1] = 250 mg/mL HPBCD, 10 mM borate, 80°C, day 0
[2] = 250 mg/mL HPBCD, 10 mM borate, 80°C, day 1
[3] = 250 mg/mL HPBCD, 10 mM borate, 80°C, day 2
[4] = 250 mg/mL HPBCD, 10 mM borate, 80°C, day 3
[5] = 250 mg/mL HPBCD, 10 mM borate, 80°C, day 7
[6] = 250 mg/mL HPBCD, 10 mM borate, day 0
[7] = 250 mg/mL HPBCD, 10 mM phosphate, 80°C, day 0
[8] = 250 mg/mL HPBCD, 10 mM phosphate, 80°C, day 1
[9] = 250 mg/mL HPBCD, 10 mM phosphate, 80°C, day 2
[10] = 250 mg/mL HPBCD, 10 mM phosphate, 80°C, day 3
[11] = 250 mg/mL HPBCD, 10 mM phosphate, 80°C, day 7
[12] = 250 mg/mL HPBCD, 10 mM phosphate, day 0
[13] = 250 mg/mL HPBCD, 20 mM phosphate, 80°C, day 0
[14] = 250 mg/mL HPBCD, 20 mM phosphate, 80°C, day 1
[15] = 250 mg/mL HPBCD, 20 mM phosphate, 80°C, day 2
[16] = 250 mg/mL HPBCD, 20 mM phosphate, 80°C, day 3
[17] = 250 mg/mL HPBCD, 20 mM phosphate, 80°C, day 7

C[C@H](CCCC(C)(C)O)[C@H]1CC[C@H]2[C@@H]3CC=C4C[C@@H](OS(=O)(=O)[O-])CC[C@]4(C)[C@H]3CC[C@]12C.[Na+] [25HC3S, 5-cholesten-3, 25-diol, 3-sulfate]
Calculated t90 (10 mM borate, 80°C): 2.0 days
First Order Rate Constant (10 mM borate, 80°C): −0.0463
Intercept (first order fit of % remaining) (10 mM borate, 80°C): 98.9
Calculated t90 (10 mM phosphate, 80°C): 2.3 days
First Order Rate Constant (10 mM phosphate, 80°C): −0.0462
Intercept (first order fit of % remaining) (10 mM phosphate, 80°C): 99.9
Calculated t90 (20 mM phosphate, 80°C): 2.2 days
First Order Rate Constant (20 mM phosphate, 80°C): −0.0437
Intercept (first order fit of % remaining) (20 mM phosphate, 80°C): 99.2
Calculated t90 (50 mM borate, 80°C): 1.9 days
First Order Rate Constant (50 mM borate, 80°C): −0.0484
Intercept (first order fit of % remaining) (50 mM borate, 80°C): 98.8
Calculated t90 (50 mM phosphate, 80°C): 2.2 days
First Order Rate Constant (50 mM phosphate, 80°C): −0.0451
Intercept (first order fit of % remaining) (50 mM phosphate, 80°C): 99.5
Calculated t90 (100 mM phosphate, 80°C): 2.2 days
First Order Rate Constant (100 mM phosphate, 80°C): −0.0430
Intercept (first order fit of % remaining) (100 mM phosphate, 80°C): 99
pH (250 mg/mL HPBCD, 10 mM borate, 60°C, 29 days): 8.90
25HC3S concentration [1]: 28.58 mg/mL
% Remaining of 25HC3S [1]: 100.0%
25HC3S concentration [2]: 26.90 mg/mL
% Remaining of 25HC3S [2]: 94.1%
Osmolality [2]: 318 mmol/kg
pH [2]: 9.12
25HC3S concentration [3]: 25.63 mg/mL
% Remaining of 25HC3S [3]: 89.7%
Osmolality [3]: 323 mmol/kg
pH [3]: 8.92
25HC3S concentration [4]: 24.40 mg/mL
% Remaining of 25HC3S [4]: 85.4%
Osmolality [4]: 328 mmol/kg
pH [4]: 8.60
25HC3S concentration [5]: 20.55 mg/mL
% Remaining of 25HC3S [5]: 71.9%
Appearance [5]: light brown
Osmolality [5]: 352 mmol/kg
pH [5]: 7.06
Osmolality [6]: 316 mmol/kg
pH [6]: 9.36
pH (250 mg/mL HPBCD, 10 mM phosphate, 60°C, 29 days): 7.04
25HC3S concentration [7]: 28.45 mg/mL
% Remaining of 25HC3S [7]: 100.0%
25HC3S concentration [8]: 27.03 mg/mL
% Remaining of 25HC3S [8]: 95.0%
Osmolality [8]: 291 mmol/kg
pH [8]: 7.28
25HC3S concentration [9]: 26.00 mg/mL
% Remaining of 25HC3S [9]: 91.4%
Osmolality [9]: 286 mmol/kg
pH [9]: 6.82
25HC3S concentration [10]: 24.70 mg/mL
% Remaining of 25HC3S [10]: 86.8%
Osmolality [10]: 294 mmol/kg
pH [10]: 6.34
25HC3S concentration [11]: 20.58 mg/mL
% Remaining of 25HC3S [11]: 72.3%
Osmolality [11]: 300 mmol/kg
pH [11]: 2.67
Osmolality [12]: 273 mmol/kg
pH [12]: 8.09
pH (250 mg/mL HPBCD, 20 mM phosphate, 60°C, 29 days): 7.17
25HC3S concentration [13]: 28.63 mg/mL
% Remaining of 25HC3S [13]: 100.0%
25HC3S concentration [14]: 27.03 mg/mL
% Remaining of 25HC3S [14]: 94.4%
Osmolality [14]: 325 mmol/kg
pH [14]: 7.35
25HC3S concentration [15]: 26.05 mg/mL
% Remaining of 25HC3S [15]: 91.0%
Osmolality [15]: 328 mmol/kg
pH [15]: 7.13
25HC3S concentration [16]: 24.70 mg/mL
% Remaining of 25HC3S [16]: 86.3%
Osmolality [16]: 328 mmol/kg
pH [16]: 6.80
25HC3S concentration [17]: 21.00 mg/mL
% Remaining of 25HC3S [17]: 73.3%
Osmolality [17]: 354 mmol/kg
pH [17]: 5.75
Osmolality (250 mg/mL HPBCD, 20 mM phosphate, day 0): 311 mmol/kg
